Assays:
hypertensive patients = assay: Two separate studies: blood pressure change with HCTZ, Losartan and rostafuroxin in patients carrying profile 4, 8 or 9; type: in vivo, human; conditions: preliminary data
Text: In particular, individuals carrying profile 4 show a modification in blood pressure of: −12.3±1.5 mmHg with HCTZ; −11.3±1.7 with Losartan and −18.74±1.8 mmHg with rostafuroxin; individuals with profile 8 show the a decrease in blood pressure of −11.3±1.2 with HCTZ; −11.6±1.3 with Losartan and −15.2±1.5 mmHg with rostafuroxin; individuals with profile 9 show the a decrease in blood pressure of −11.9±1.2 with HCTZ; −11.4±1.4 with Losartan and −15.2±1.5 mmHg with rostafuroxin.

[1] = Maximal tolerated dose without any effects (NOAEL) in animals; conditions: in vivo, read-out: maximal tolerated dose that does not produce any effects (NOAEL)
Na—K Pump and cSrc = assay: Correction of the effect of mutated adducin or ouabain on Na-K pump and cSrc in animals; type: in vivo; conditions: nanomoles doses in animals

## C[C@]12CC[C@H](O)C[C@H]1CC[C@@H]1[C@@H]2CC[C@]2(C)[C@@](O)(c3ccoc3)CC[C@]12O [rostafuroxin, 17β-(3-furyl)-5β-androstane-3β,14β,17α-triol]
Hypertensive patients; individuals carrying profile 4
  modification in blood pressure: −18.74±1.8 mmHg
Hypertensive patients; individuals with profile 8
  decrease in blood pressure: −15.2±1.5 mmHg
Hypertensive patients; individuals with profile 9
  decrease in blood pressure: −15.2±1.5 mmHg
[1]
  NOAEL: 100 mg/kg
Na—K Pump and cSrc
  correction of the effect of mutated adducin or ouabain on Na—K Pump and cSrc: able to selectively correct the effect of mutated adducin or ouabain on Na—K Pump and cSrc, without blocking the effect of wild adducin

Source: US9408854B2, “Methods and systems for pharmacogenomic treatment of cardiovascular conditions” (ROSTAQUO S.P.A., priority 2009, dated 2016)
